Measured values taken from patent US11160279B2, “Method of controlling herbicide resistant weeds” (Sumitomo Chemical Company, Limited, priority 2018, dated 2021).

Assays:
Type in all cases: in vivo
[1] = test system: Amaranthus palmeri having an Arg128Met mutation in PPO2; experiment: Soil surface treatment on the day the weed is sown, soybean sown 7 days later, greenhouse pot test (Example 1); conditions: 10, 20, 40, or 80 g/ha applied to soil surface, 200 L/ha aqueous dilution; soybean sown after 7 days; examined after 14 days
From the text: Amaranthus palmeri having an Arg128Met mutation in PPO2 is sown in a plastic pot. On the same day, a compound X is applied to the surface of soil in an amount of 10, 20, 40, or 80 g/ha by spraying 200 L/ha of an aqueous dilution containing the compound X. Then, the weeds are cultivated in a greenhouse and soybean seeds are sown after 7 days, to examine the effects on the weeds and phytotoxic effects on soybean after 14 days.

[2] = test system: Amaranthus palmeri having an Arg128Met mutation in PPO2; experiment: Foliar treatment 21 days after sowing weed and soybean, greenhouse pot test (Example 3); conditions: 10, 20, 40, or 80 g/ha foliar treatment 21 days after sowing, 200 L/ha aqueous dilution; examined 14 days after the treatment
From the text: Amaranthus palmeri having an Arg128Met mutation in PPO2 and soybean are sown in a plastic pot. Then, the weeds and soybean are cultivated in a greenhouse. A compound X is applied in an amount of 10, 20, 40, or 80 g/ha by spraying 200 L/ha of an aqueous dilution containing the compound X to perform foliar treatment 21 days after the sowing. Then, the weeds and soybean are cultivated in a greenhouse to examine the effects on the weeds and phytotoxic effects on soybean 14 days after the treatment.

[3] = test system: Amaranthus palmeri having an Arg128Met mutation in PPO2; experiment: Soil surface treatment on the day weed and soybean are sown, greenhouse pot test (Example 2); conditions: 10, 20, 40, or 80 g/ha applied to soil surface on day of sowing, 200 L/ha aqueous dilution; examined after 21 days
From the text: Amaranthus palmeri having an Arg128Met mutation in PPO2 and soybean are sown in a plastic pot. On the same day, a compound X is applied to the surface of soil in an amount of 10, 20, 40, or 80 g/ha by spraying 200 L/ha of an aqueous dilution containing the compound X. Then, the weeds and soybean are cultivated in a greenhouse to examine the effects on the weeds and phytotoxic effects on soybean after 21 days.

Measured: effects on the weeds (herbicidal effect)

CCOC(=O)COc1ncccc1Oc1cc(-n2c(=O)cc(C(F)(F)F)n(C)c2=O)c(F)cc1Cl [compound X, Ethyl [3-[2-chloro-4-fluoro-5-(1-methyl-6-trifluoromethyl-2,4-dioxo-1,2,3,4-tetrahydropyrimidine-3-yl)phenoxy]-2-pyridyloxy]acetate]
valuable effect: all assays above
